Source: US5217961A, “Condensed quinoline system N-glycosides” (Mect Corporation, priority 1988, dated 1993)

Legend:
P-388 = assay: Effect on prolongation of life span in cancer implanted mouse (P-388); type: in vivo, CDF mouse; conditions: day 1 and day 5, P-388 i.p.; for responders at 12.5 mg/kg / responders at 25 mg/kg / responders at 50 mg/kg / responders at 100 mg/kg / responders at 200 mg/kg / responders at 400 mg/kg / cure (mice cured / mice in group): 6 mice/group; for responders at 12.5 mg/kg / responders at 25 mg/kg / responders at 50 mg/kg / responders at 100 mg/kg / responders at 200 mg/kg / responders at 400 mg/kg: read-out: cure (mice cured / mice in group) (converted)
Method: Animal used: CDF mouse (6 mice/group)
Number of implanted cells: 10^6 cells/mouse
Day of administration: Day 1 and Day 5
Dosage: LD50 or 400 mg/kg/day at the maximum

KB cells = assay: Function for inhibiting multiplication of KB cell (in vitro test); type: cell-based, human; conditions: compound added day 1, cells counted day 4, effective when ED50 < 4 μg/ml, 4320 min
Method: KB cells, carcinomatous cell tumors, were transferred to in vitro floatation incubator systems, and added respectively with compounds of Examples 1 to 33. The results of cultivation added with these compounds were compared with the results of the control which was not added with any compound.
Cell used: KB Cell (Originating from human mouth epidermal cancer)
Culture medium: Eagles minimal essential medium (MEM) supplemented with 10% calf serum
Cultivation: 37° C. carbon dioxide gas incubator (5% CO2)
Day 0: KB cells were diluted in the culture medium to adjust the KB cell density to 2×10^4 /ml. Three ml of the cell suspension was inoculated in each of 60 mm plastic dishes. Two dishes per standard dosage were used.
Day 1: Test compound was added to the medium so that the final concentrations were set to 100, 30, 10, 3 and 1 μg/ml.
Day 4: Cells were scraped off from the dish using trypsin, and the cell number was countered using a Corter counter.
In generally accordance with the stipulations set forth by the National Cancer Institute (NCI) U.S.A., the concentration of compound necessary for exerting 50% growth inhibition (ED50) compared to the contral was determined.

[1] = J. Med. Chem. vol.17, 922 (1974); cited from earlier work
[2] = Mus musculus, P388, ip, 12.5 mg/kg
[3] = Mus musculus, P388, ip, 25 mg/kg
[4] = Mus musculus, P388, ip, 50 mg/kg
[5] = Mus musculus, P388, ip, 100 mg/kg
[6] = Mus musculus, P388, ip, 200 mg/kg
[7] = Mus musculus, P388, ip, 400 mg/kg
[8] = Mus musculus, P388, ip, 50 mg/kg, effective when T/C >= 120%, read-out: Ratio of Life Prolongation (%) (T/C %)
[9] = 12.5 mg/kg, effective when T/C >= 120%
[10] = 25 mg/kg, effective when T/C >= 120%
[11] = 50 mg/kg, effective when T/C >= 120%

Compound: COc1cc(NS(C)(=O)=O)ccc1Nc1c2cccc(C)c2nc2c1[nH]c1cc(C)ccc12 [Compound 11, 6-(4-methanesulfonamide-2-methoxyanilino)-3,10-dimethylindolo[3,2-b]quinoline]
- responders at 12.5 mg/kg (P-388; [2]): 16.7%
- responders at 25 mg/kg (P-388; [3]): 33.3%
- responders at 50 mg/kg (P-388; [4]): 16.7%

Compound: COc1cc(NS(C)(=O)=O)ccc1Nc1c2cccc(C)c2nc2c1oc1cc(C)ccc12 [Compound 29, 6-(4-methanesulfonamide-2-methoxyanilino)-3,10-dimethylbenzofurano[3,2-b]quinoline]
- responders at 100 mg/kg (P-388; [5]): 16.7%
- responders at 200 mg/kg (P-388; [6]): 16.7%

Compound: COc1cc(NS(C)(=O)=O)ccc1Nc1c2ccccc2nc2c1[nH]c1cccc(C)c12 [Compound 16, 6-(4-methanesulfonamide-2-methoxyanilino)-1-mehtylindolo[3,2-b]quinoline]
- responders at 12.5 mg/kg (P-388; [2]): 33.3%
- responders at 25 mg/kg (P-388; [3]): 33.3%

Compound: COc1cc(OC(C)=O)ccc1Nc1c2ccccc2nc2c1[nH]c1ccccc12 [Compound 21]
- responders at 50 mg/kg (P-388; [4]): 16.7%
- response vs control in vivo at 100 mg/kg (P-388; Mus musculus, P388, ip, 100 mg/kg, effective when T/C >= 120%, read-out: Ratio of Life Prolongation (%) (T/C %)): 212%

Compound: COc1cc(NC(C)=O)ccc1Nc1c2ccccc2nc2c1[nH]c1ccccc12 [Compound 15]
- responders at 100 mg/kg (P-388; [5]): 16.7%

Compound: COc1cc(NS(C)(=O)=O)ccc1Nc1c2ccccc2nc2c1oc1cc(C)ccc12 [Compound 31, 6-(4-methanesulfonamide-2-methoxyanilino)-3-methylbenzofurano[3,2-b]quinoline]
- responders at 200 mg/kg (P-388; [6]): 16.7%
- responders at 400 mg/kg (P-388; [7]): 16.7%

Compound: CN(C)c1cc(NS(C)(=O)=O)ccc1Nc1c2c(nc3ccccc13)-c1ccccc1C2 [Compound 6, 6-(4-methanesulfonamide-2-dimethylaminoanilino)-indeno[3,2-b]quinoline]
- responders at 200 mg/kg (P-388; [6]): 33.3%

Compound: COc1cc(NS(C)(=O)=O)ccc1Nc1c2c(nc3c(C)cccc13)-c1ccccc1C2 [Compound 2, 6-4-(methanesulfonamide-2-methoxyanilio)-10-methylindeno[3,2-b]quinoline]
- responders at 100 mg/kg (P-388; [5]): 16.7%

Compound: COc1cc(NS(C)(=O)=O)ccc1Nc1c2cccc(C)c2nc2c1oc1ccccc12 [Compound 27, 6-(4-methanesulfonamide-2-methoxyanilino)-10-methylbenzofurano[3,2-b]quinoline]
- responders at 200 mg/kg (P-388; [6]): 16.7%
- responders at 400 mg/kg (P-388; [7]): 33.3%
- response vs control in vivo at 400 mg/kg (P-388; Mus musculus, P388, ip, 400 mg/kg, effective when T/C >= 120%, read-out: Ratio of Life Prolongation (%) (T/C %)): 310%

Compound: COc1cc(NS(C)(=O)=O)ccc1Nc1c2ccccc2nc2c1[nH]c1ccc([N+](=O)[O-])cc12 [Compound 18, 6-(4-methanesulfonamide-2-methoxyanilino)-2-nitroindolo[3,2-b]quinoline]
- responders at 12.5 mg/kg (P-388; [2]): 16.7%
- response vs control in vivo at 12.5 mg/kg (P-388; Mus musculus, P388, ip, 12.5 mg/kg, effective when T/C >= 120%, read-out: Ratio of Life Prolongation (%) (T/C %)): 164%
- response vs control in vivo at 25 mg/kg (P-388; Mus musculus, P388, ip, 25 mg/kg, effective when T/C >= 120%, read-out: Ratio of Life Prolongation (%) (T/C %)): 131%
- response vs control in vivo at 50 mg/kg (P-388; [8]): 70%

Compound: COc1cc(NS(C)(=O)=O)ccc1Nc1c2ccccc2nc2c1[nH]c1ccc(Cl)cc12 [Compound 12]
- responders at 25 mg/kg (P-388; [3]): 16.7%
- responders at 50 mg/kg (P-388; [4]): 16.7%

Compound: COc1cc(O)ccc1Nc1c2ccccc2nc2c1[nH]c1ccccc12 [Compound 20]
- responders at 25 mg/kg (P-388; [3]): 16.7%
- response vs control in vivo at 50 mg/kg (P-388; [8]): 202%

Compound: COc1cc(NS(C)(=O)=O)ccc1Nc1c2ccccc2nc2c1sc1cccc(C)c12 [Compound 33, 6-(4-methanesulfonamide-2-methoxyanilino)-1-methylbenzothieno[3,2-b]quinoline]
- responders at 200 mg/kg (P-388; [6]): 16.7%
- responders at 400 mg/kg (P-388; [7]): 16.7%

Compound: COc1cc(NS(C)(=O)=O)ccc1Nc1c2ccccc2nc2c1[nH]c1ccc(NC3OC(COC(C)=O)C(OC(C)=O)C(OC(C)=O)C3OC(C)=O)cc12 (centres unmarked) [Compound 23, N-{4-[(7-(2,3,4,6-tetra-O-acetylglycosyl-1-amino)-10H-indolo[3,2-b]quinoline-11-yl)amino]-3-methoxyphenyl} methanesulfonamide]
- cure (mice cured / mice in group) (P-388; 12.5 mg/kg): 2/6
- Ratio of Life Prolongation (%) (T/C %) (P-388; [9]): 300%
- cure (mice cured / mice in group) (P-388; 25 mg/kg): 1/6
- Ratio of Life Prolongation (%) (T/C %) (P-388; [10]): 148%
- Ratio of Life Prolongation (%) (T/C %) (P-388; [11]): 58%
- Conc. (ED50), concentration necessary for exerting 50% growth inhibition of KB cells (KB cells): < 0.3 µg/mL

Compound: COc1cc(NS(C)(=O)=O)ccc1Nc1c2ccccc2nc2ccccc12 [Amsacrine, N-[4-(9-acridylamino)-3-methoxyphenyl)methanesulfonamide]
- carcinostatic function [1]: highest carcinostatic function

Compound: COc1cc(NS(C)(=O)=O)ccc1Nc1c2ccccc2nc2c1[nH]c1ccc(N)cc12 [Compound 22, 2-amino-6-(4-methanesulfonamide-2-methoxyanilino)indolo[3,2-b]quinoline]
- responders at 50 mg/kg (P-388; [4]): 16.7%
- response vs control in vivo at 50 mg/kg (P-388; [8]): 242%

Compound: COc1cc(NS(C)(=O)=O)ccc1Nc1c2cccc(C)c2nc2c1[nH]c1ccccc12 [Compound 9]
- responders at 25 mg/kg (P-388; [3]): 16.7%
- responders at 50 mg/kg (P-388; [4]): 66.7%

Compound: COc1cc(NS(C)(=O)=O)ccc1Nc1c2cccc(C)c2nc2c1oc1cccc(C)c12 [Compound 28, 6-(4-methanesulfonamide-2-methoxyanilino)-1,10-dimethylbenzofurano[3,2-b]quinoline]
- response vs control in vivo at 200 mg/kg (P-388; Mus musculus, P388, ip, 200 mg/kg, effective when T/C >= 120%, read-out: Ratio of Life Prolongation (%) (T/C %)): 103%

Compound: COc1cc(NS(C)(=O)=O)ccc1Nc1c2ccccc2nc2c1[nH]c1ccc(F)cc12 [Compound 19, 2-fluoro-6-(4-methanesulfonamide-2-methoxyanilino)indolo[3,2-b]quinoline]
- responders at 12.5 mg/kg (P-388; [2]): 50%
- responders at 25 mg/kg (P-388; [3]): 33.3%
- response vs control in vivo at 50 mg/kg (P-388; [8]): 93%

Compound: COc1cc(NS(C)(=O)=O)ccc1Nc1c2ccccc2nc2c1[nH]c1ccc(NC3OC(CO)C(O)C(O)C3O)cc12 (centres unmarked) [Compound 24, N-{4-[(7-(glycosyl-1-amino)-10H-indolo[3,2-b]quinoline-11-yl)amino]-3-methoxyphenyl} methanesulfonamide]
- cure (mice cured / mice in group) (P-388; 12.5 mg/kg): 2/6
- Ratio of Life Prolongation (%) (T/C %) (P-388; [9]): 213%
- Ratio of Life Prolongation (%) (T/C %) (P-388; [10]): 145%
- Ratio of Life Prolongation (%) (T/C %) (P-388; [11]): 90%
- Conc. (ED50), concentration necessary for exerting 50% growth inhibition of KB cells (KB cells): < 0.3 µg/mL

Compound: COC(=O)Nc1ccc(Nc2c3ccccc3nc3c2[nH]c2ccccc23)c(OC)c1 [Compound 14]
- responders at 100 mg/kg (P-388; [5]): 16.7%

Compound: COc1cc(NS(C)(=O)=O)ccc1Nc1c2c(nc3c(C)cccc13)-c1c(C)cccc1C2 [Compound 1, 6-4-(methanesulfonamide-2-methoxyanilino)-1,10-dimethylindeno[3,2-b]quinoline]
- responders at 100 mg/kg (P-388; [5]): 16.7%
- responders at 200 mg/kg (P-388; [6]): 16.7%

Compound: 6-(4-methanesulfonamide-anilino)-indeno[3,2-b]quinoline [Compound 5]
- Ratio of Life Prolongation (%) (T/C %) (P-388; [10]): 140%
- Ratio of Life Prolongation (%) (T/C %) (P-388; [11]): 135%
- Ratio of Life Prolongation (%) (T/C %) (P-388; 100 mg/kg, effective when T/C >= 120%): 163%
- Ratio of Life Prolongation (%) (T/C %) (P-388; 200 mg/kg, effective when T/C >= 120%): 172%
- Ratio of Life Prolongation (%) (T/C %) (P-388; 400 mg/kg, effective when T/C >= 120%): 165%
- Conc. (ED50), concentration necessary for exerting 50% growth inhibition of KB cells (KB cells): < 0.3 µg/mL

Compound: COc1cc(NS(C)(=O)=O)ccc1Nc1c2ccccc2nc2c1[nH]c1ccc(NC(C)=O)cc12 [Compound 25]
- response vs control in vivo at 50 mg/kg (P-388; [8]): 184%

Compound: COc1cc(NS(C)(=O)=O)ccc1Nc1c2ccccc2nc2c1[nH]c1ccc(NS(C)(=O)=O)cc12 [Compound 26, 2-methanesulfonamide-6-(4-methanesulfonamide-2-methoxyanilino)indolo[3,2-b]quinoline]
- response vs control in vivo at 50 mg/kg (P-388; [8]): 143%

Compound: COc1cc(NS(C)(=O)=O)ccc1Nc1c2cccc(C)c2nc2c1[nH]c1cccc(C)c12 [Compound 10, 6-(4-methanesulfonamide-2-methoxyanilino)-1,10-dimethylindolo[3,2-b]quinoline]
- responders at 100 mg/kg (P-388; [5]): 16.7%
